How the values were obtained:
[1] = test system: human liver hepatocellular carcinoma cell line (Hepg2); assay: Cytotoxicity, MTT assay, HePG2; format: cell-based
Source text: Compounds 2a–d, 3a–e, 4a–e, 5a–d, and 6a–c were screened against human neoplastic cell lines such as human lung carcinoma cells (A549), human gastric adenocarcinoma cells (SGC7901), human cervical carcinoma cells (HeLa), human liver hepatocellular carcinoma cell line (Hepg2), human chronic myelogenous leukemia cell line (K562), human acute mononuclear granulocyte leukemia (THP-1), human normal heptical cell line (LO2) (Table 1) using modified MTT assay (3-(4,5-dimethyl-2-thiazolyl)-2,5-diphenyl-2-H-tetrazolium bromide, MTT, Dojindo Laboratories, Tokyo, Japan). All cell lines were maintained at 37 °C in a humidified 5% CO2 and 95% air atmosphere. The HePG2 cell lines were cultured in DMEM containing 10% fetal bovine serum. Other cell lines were grown in medium 1640 and supplemented with 10% fetal bovine serum. […] Controls were prepared with 0.1% DMSO (v/v) only. The cells were seeded in a 96-well plate in 200 µL medium per well at a density of 1 × 10^4 cells/well for 24 hours. The cells were treated with serial concentrations of compound and incubated for 24 hours. Cells with only culture media were used as control. After the media was removed, 20 µL of MTT (5 mg/mL) was added then the plates were incubated for 4 hours at 37 °C in cell culture incubator. The MTT containing media were removed and then 150 µL of DMSO was added to dissolve the dark-blue formazan crystals. The optical density (OD) was measured by a multi-well plate reader (TECAN, Männedorf, Switzerland) at 570 nm. The results are expressed as a decrease in the cell viability (%) in comparison to untreated controls. The concentration of each compound was examined in triplicate, and the IC50 values are expressed in Table 1. The concentrations of the compounds were 50, 20, 10, 5, 2.5, 1, 0.5, 0.1, 0.05 and 0.01 µg/mL. […] The concentrations of curcumin used were 100, 50, 25, 12.5, 6.25, 3.125, 1, 0.5 and 0.1 µg/mL.

[2] = test system: human lung carcinoma cells (A549); assay: Cytotoxicity, MTT assay, A549; format: cell-based
Source text: (§1) Compounds 2a–d, 3a–e, 4a–e, 5a–d, and 6a–c were screened against human neoplastic cell lines such as human lung carcinoma cells (A549), human gastric adenocarcinoma cells (SGC7901), human cervical carcinoma cells (HeLa), human liver hepatocellular carcinoma cell line (Hepg2), human chronic myelogenous leukemia cell line (K562), human acute mononuclear granulocyte leukemia (THP-1), human normal heptical cell line (LO2) (Table 1) using modified MTT assay (3-(4,5-dimethyl-2-thiazolyl)-2,5-diphenyl-2-H-tetrazolium bromide, MTT, Dojindo Laboratories, Tokyo, Japan). All cell lines were maintained at 37 °C in a humidified 5% CO2 and 95% air atmosphere. The HePG2 cell lines were cultured in DMEM containing 10% fetal bovine serum. Other cell lines were grown in medium 1640 and supplemented with 10% fetal bovine serum. […] Controls were prepared with 0.1% DMSO (v/v) only. The cells were seeded in a 96-well plate in 200 µL medium per well at a density of 1 × 10^4 cells/well for 24 hours. The cells were treated with serial concentrations of compound and incubated for 24 hours. Cells with only culture media were used as control. After the media was removed, 20 µL of MTT (5 mg/mL) was added then the plates were incubated for 4 hours at 37 °C in cell culture incubator. The MTT containing media were removed and then 150 µL of DMSO was added to dissolve the dark-blue formazan crystals. The optical density (OD) was measured by a multi-well plate reader (TECAN, Männedorf, Switzerland) at 570 nm. The results are expressed as a decrease in the cell viability (%) in comparison to untreated controls. The concentration of each compound was examined in triplicate, and the IC50 values are expressed in Table 1. The concentrations of the compounds were 50, 20, 10, 5, 2.5, 1, 0.5, 0.1, 0.05 and 0.01 µg/mL. Doxorubicin (DOX) and Curcumin were used as positive controls. […] The concentrations of curcumin used were 100, 50, 25, 12.5, 6.25, 3.125, 1, 0.5 and 0.1 µg/mL.

[3] = test system: human chronic myelogenous leukemia cell line (K562); assay: Cytotoxicity, MTT assay, K562; format: cell-based
Source text: as §1

[4] = Body weight of HepG2-bearing mice; format: in vivo, Balb/c nude mice; details: measured every 2 days during treatment
Protocol: The antitumor effect was investigated on the seven-week-old female Balb/c nude mice (n = 30) weighing 19–21 grams (Shanghai Laboratory Animal Center). Briefly, 0.2 mL HepG2 cells (1 × 10^7/mL) were inoculated subcutaneously into the alar left of each mouse. On the third day after the inoculation, the HepG2-bearing mice were randomly divided into five groups (n = 6/group) and administrated the according drug or solvent. […] The control group was administrated of saline as negative control. The body weight and tumor volumes calculation were recorded from the day of treatment, and the tumor volumes were calculated using the following equation: tumor volume = length × (width)^2 × π/6. Animal experiments were reviewed and approved by the Binzhou Medical University Experimental Animal Committee.

[5] = quotient of the IC50 values towards nonmalignant LO2 cells

O=C1/C(=C/c2cc(/N=C/c3ccc(O)c(O)c3O)ccc2F)CNC/C1=C\c1cc(/N=C/c2ccc(O)c(O)c2O)ccc1F [5c]
IC50 ([1]; Homo sapiens, HepG2, MTT, 24 hours): 600 ± 100 nM | HePG2 SI [1, 5]: 24.5 | IC50 ([2]; Homo sapiens, A549, MTT, 24 hours): 1400 ± 200 nM | A549 SI [2, 5]: 10.7 | IC50 ([3]; Homo sapiens, K562, MTT, 24 hours): 1300 ± 100 nM | K562 SI [3, 5]: 11.8 | body weight change [4]: no apparent change in body weight
